20 sequences from paper PMC9816411, “Host-derived chimeric peptides clear the causative bacteria and augment host innate immunity during infection: A case study of HLB in citrus and fire blight in apple” (Frontiers in Plant Science, 2022) can be followed below.

Ends that are not written are not given here. Some results are limits rather than exact numbers.

For the first assay, the system named is E. coli strain BL21 (and, in some cases, ATCC25922). The following applies: BL21, 24 h.
A word on the MIC: it is the lowest concentration that inhibits growth of the organism. The low end stands for a more susceptible organism, the high end for a less susceptible organism. Sequence RLPEAFQWQRNIRKVRRPDSPGRRWWRWWR [UGK-9] returned an MIC of 5 to 10 µM.

Regarding KRPEELLQKLKSLEGSKAHLQHHDWTSK [UGK-41], the MIC was >20 µM.

With IERSRNLDWYKGPTLLDALKNLNEGKRPSDK [I31LB], the MIC was >20 µM. Same read-out and setting: next, KPRLSEQLQELTRRLLDSPLERRWWEWWRR [UGK-33]: >20 µM; FWQRRIRRWRRGSGYGSPGKKLIKKILKIL [30P-2]: 1.25 to 2.5 µM; KPRGSEQLQELTRRLLDSPLERRWWEWMRR [UGK-29]: >20 µM. KKLIKKILKIL [11P-1]: the MIC fell in the range of 10 to 20 µM.

KKLPKEILKILGSGYGSLPKEILKILELKK [Gen-1] returned an MIC of 5 to 10 µM. The same measure, in the same setting: next, RRWWRWWRGSGYGSPGFWQRRIRRWRR [27P-1]: >20 µM. On to QPKRLEELLEKLKSLEGSKAHEKLHDWTRK [UGK-49], for which the MIC is >20 µM. As to FWQRRIRRWRR [11P-3], the MIC is >20 µM. In the case of RRWWRWWRGSYGSVYGSPGFWQRRIRRWRR [UGI-7], the MIC is 5 to 10 µM. Sequence RLPEAFQWQRRLRRWRRPDSPGRRWWRWWR [UGK-5] displayed a minimum inhibitory concentration (MIC) of 5 to 10 µM. Consider RRWWRWWR [8P-1], for which the MIC is >20 µM. With FQWQRNIRKVR [11P-2], the MIC is >20 µM. Still for that read-out and setting: then LPKRLEELLQKLKSLEGSKAHEKLHDWTRK [UGK-45], with >20 µM; and FWQRRIRRWRRGSGYGSPGRRWWRWWR [27P-2], with 5 to 10 µM; and KPRGSEQLQELTRRLLDSPLERRFWQWMRR [UGK-37], with >20 µM.

In turn, RLPKAFQWQRRLRRWRRPYSPGRRWWRWWR [UGK-1] had an MIC of 5 to 10 µM. IERSTNLDWYKGPTLL [16P-1]: the MIC is >20 µM.

Another assay relates to E. coli BL21. The following applies: BL21, 24 h.
The term IC50 denotes the midpoint of a concentration-inhibition curve. Lower therefore signals inhibition by little substance. As for KKLIKKILKIL [11P-1], the IC50 was determined as 12.9 ± 0.62 µM and the “IC99 (~MIC)” value was found to be 29.38 ± 0.75 µM.

Regarding KKLPKEILKILGSGYGSLPKEILKILELKK [Gen-1], the IC50 is 10.22 ± 0.07 µM and the “IC99 (~MIC)” value is 11.4 ± 0.07 µM.

As for FWQRRIRRWRR [11P-3], the 50% inhibitory concentration (IC50) worked out at 49 ± 2.79 µM and the “IC99 (~MIC)” value came out at 160.80 ± 3.25 µM.
